Common to all, as to format: cell-based
Test [1] has as its system Ba/F3 KIF5B-RET^G810R cells. The experiment in a line: Cytotoxicity assay (CellTiter-Glo), Ba/F3 KIF5B-RET G810R. The note with it: ratio of Ba/F3 parental IC50 to Ba/F3 KIF5B-RET^G810R IC50. As for the experimental part: (§1) Inhibitory effects of example compounds on the activity of Ba/F3 parental generation, Ba/F3 KIF5B-RET, Ba/F3 KIF5B-RET^V804M, Ba/F3 KIF5B-RET^V804L, Ba/F3 KIF5B-RET^G810R, Ba/F3 FLT3-ITD, Ba/F3 FLT3-ITD^D835Y, Ba/F3 FLT3-ITD^F691L cells were determined.
(§2) Materials and reagents: fetal bovine serum FBS (GIBCO, Cat #10099141), CellTiter-Glo® Luminescent Cell Viability Assay kit (Promega, Cat #G7572), 96-well black-wall clear flat-bottom plate (Corning®, Cat #3603).
(§3) 1. Cells in the logarithmic growth phase were harvested and counted with a […]. Cell viability was detected by a trypan blue exclusion method, ensuring that cell viability was 90% or more; 2. Cell concentration was adjusted to about 3000 cells/well; 90 μl of cell suspension was added to each well of the 96-well plate; 3. The cells in the 96-well plate were incubated overnight under the condition of 37° C., 5% CO2, and 95% humidity.
(§4) 1. A series of compound solutions were formulated by 3.16-fold serial dilution starting from a concentration of 10 μM, resulting in 9 concentrations. 10 μL of the compound solutions were added in each well of the 96-well plate seeded with cells in triplicate for each compound concentration; 2. The cells in the 96-well plate added with compounds were further incubated under the condition of 37° C., 5% CO2, and 95% humidity for 72 hrs, and then CTG analysis was carried out.
(§5) 1. CTG reagent was thawed, and the cell plate was equilibrated at room temperature for 30 minutes; 2. An equal volume […] of CTG solution was added to each well; 3. The cell plate was shaken on an orbital shaker for 5 minutes to lyse the cells; 4. The cell plate was placed at RT for 20 minutes to stabilize the luminescence signal; 5. Luminescence value was read.
(§6) Data were Analyzed by GraphPad Prism 5.0 Software, and Fitted by Nonlinear S-Curve Regression to obtain a dose-response curve, from which IC50 values were calculated.
(§7) Cell survival rate (%)=(luminescence value of drug to be tested−luminescence value of culture medium control)/(luminescence value of cell control−luminescence value of culture medium control)×100%.
(ATP-based viability assays read luminescence as a measure of living cells.)

For test [2], the target named is T1, Ba/F3 KIF5B-RET^G810R cells (Homo sapiens, UniProt P07949, G810R, cells depend on it).
T1 construct: Ba/F3 KIF5B-RET^G810R IC50 (nM); other: CellTiter-Glo, 72 hrs; fused on or other part: P33176 (Kinesin-1 heavy chain)
T1 sequence (P07949 whole entry G810R, the tested form may be a part): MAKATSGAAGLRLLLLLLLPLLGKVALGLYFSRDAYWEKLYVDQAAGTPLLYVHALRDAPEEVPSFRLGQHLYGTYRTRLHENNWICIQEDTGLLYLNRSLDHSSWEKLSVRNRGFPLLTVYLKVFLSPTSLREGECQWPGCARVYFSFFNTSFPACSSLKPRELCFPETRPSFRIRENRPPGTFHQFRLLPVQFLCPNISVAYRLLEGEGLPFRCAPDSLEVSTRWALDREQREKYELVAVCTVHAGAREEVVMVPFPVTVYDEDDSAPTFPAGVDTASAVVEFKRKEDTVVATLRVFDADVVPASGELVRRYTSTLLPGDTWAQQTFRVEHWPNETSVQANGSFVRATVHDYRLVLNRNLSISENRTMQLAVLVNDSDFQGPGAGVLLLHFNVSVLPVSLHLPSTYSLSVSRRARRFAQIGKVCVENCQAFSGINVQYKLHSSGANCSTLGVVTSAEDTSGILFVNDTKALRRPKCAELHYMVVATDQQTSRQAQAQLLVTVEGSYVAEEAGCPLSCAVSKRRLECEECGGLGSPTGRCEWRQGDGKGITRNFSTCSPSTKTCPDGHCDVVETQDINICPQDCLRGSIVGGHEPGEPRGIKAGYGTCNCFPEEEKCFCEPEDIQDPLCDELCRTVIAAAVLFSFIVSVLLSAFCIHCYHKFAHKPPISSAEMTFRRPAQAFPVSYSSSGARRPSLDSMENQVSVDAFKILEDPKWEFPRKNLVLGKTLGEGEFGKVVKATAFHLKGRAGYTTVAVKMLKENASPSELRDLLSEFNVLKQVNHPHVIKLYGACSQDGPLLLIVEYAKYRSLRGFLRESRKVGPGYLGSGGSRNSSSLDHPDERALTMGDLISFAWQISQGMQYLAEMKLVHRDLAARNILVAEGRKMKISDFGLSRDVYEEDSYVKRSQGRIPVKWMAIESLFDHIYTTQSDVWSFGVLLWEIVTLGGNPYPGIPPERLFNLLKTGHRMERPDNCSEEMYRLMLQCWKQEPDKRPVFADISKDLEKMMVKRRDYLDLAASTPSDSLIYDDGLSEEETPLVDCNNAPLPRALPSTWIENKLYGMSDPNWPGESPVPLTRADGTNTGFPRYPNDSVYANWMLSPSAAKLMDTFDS
The description is as above. The note with it: CellTiter-Glo, 72 hrs; read-out: Ba/F3 KIF5B-RET^G810R IC50. The method, then:
as §1, §2, §3, §4, §5, §6, §7

Test [3] addresses T2, Ba/F3 FLT3-ITD cells (Homo sapiens, UniProt P36888, cells depend on it, form not given).
T2 construct: Ba/F3 FLT3-ITD IC50 (nM); other: CellTiter-Glo, 72 hrs
T2 sequence (P36888 1-993): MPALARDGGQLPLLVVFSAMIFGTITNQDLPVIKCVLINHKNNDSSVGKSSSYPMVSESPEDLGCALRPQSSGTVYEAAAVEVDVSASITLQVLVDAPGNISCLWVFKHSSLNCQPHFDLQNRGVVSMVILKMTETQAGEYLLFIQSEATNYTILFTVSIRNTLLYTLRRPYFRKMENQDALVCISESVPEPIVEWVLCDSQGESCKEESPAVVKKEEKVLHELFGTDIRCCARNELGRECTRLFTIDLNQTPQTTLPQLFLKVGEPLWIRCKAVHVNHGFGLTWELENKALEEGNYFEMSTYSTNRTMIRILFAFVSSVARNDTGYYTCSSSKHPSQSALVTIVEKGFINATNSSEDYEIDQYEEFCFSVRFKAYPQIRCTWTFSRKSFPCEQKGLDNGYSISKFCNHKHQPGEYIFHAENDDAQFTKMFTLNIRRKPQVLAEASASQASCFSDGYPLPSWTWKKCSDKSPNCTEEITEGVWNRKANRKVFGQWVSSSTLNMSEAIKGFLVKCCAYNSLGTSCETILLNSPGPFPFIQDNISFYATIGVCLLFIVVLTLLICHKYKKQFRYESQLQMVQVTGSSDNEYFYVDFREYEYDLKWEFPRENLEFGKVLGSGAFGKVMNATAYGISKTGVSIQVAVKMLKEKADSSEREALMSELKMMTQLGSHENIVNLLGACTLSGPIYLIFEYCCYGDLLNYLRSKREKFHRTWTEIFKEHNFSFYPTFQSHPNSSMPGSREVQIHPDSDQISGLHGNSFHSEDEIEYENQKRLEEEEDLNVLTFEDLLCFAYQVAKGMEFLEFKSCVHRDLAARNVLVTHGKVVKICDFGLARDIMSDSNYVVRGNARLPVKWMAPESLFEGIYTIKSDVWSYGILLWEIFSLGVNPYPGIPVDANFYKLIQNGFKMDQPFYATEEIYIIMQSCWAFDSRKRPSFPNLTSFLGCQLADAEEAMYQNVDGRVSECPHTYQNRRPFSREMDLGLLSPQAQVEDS
The test is described as follows: Cytotoxicity assay (CellTiter-Glo), Ba/F3 FLT3-ITD. The note with it: CellTiter-Glo, 72 hrs; read-out: Ba/F3 FLT3-ITD IC50. As for the experimental part:
as §1, §2, §3, §4, §5, §6, §7

The test system of test [4] is Ba/F3 FLT3-ITD cells. The experiment in a line: Cytotoxicity assay (CellTiter-Glo), Ba/F3 FLT3-ITD. The note with it: ratio of Ba/F3 parental IC50 to Ba/F3 FLT3-ITD IC50. As for the experimental part:
as §1, §2, §3, §4, §5, §6, §7

Test [5] addresses T3, Ba/F3 KIF5B-RET^V804L cells (Homo sapiens, UniProt P07949, V804L, cells depend on it).
T3 construct: Ba/F3 KIF5B-RET^V804L IC50 (nM); other: CellTiter-Glo, 72 hrs; fused on or other part: P33176 (Kinesin-1 heavy chain)
The test is described as follows: Cytotoxicity assay (CellTiter-Glo), Ba/F3 KIF5B-RET V804L. The note with it: CellTiter-Glo, 72 hrs; read-out: Ba/F3 KIF5B-RET^V804L IC50. The method in brief:
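Growth inhibition in engineered Ba/F3 cells measured after 72 hrs compound exposure by CTG luminescence; IC50 from fitted dose-response curves.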

Data on two compounds can be found in patent US20220380375A1, “SUBSTITUTED AROMATIC FUSED RING DERIVATIVE AND COMPOSITION COMPRISING SAME, AND USE THEREOF” (Shenzhen TargetRx, Inc., priority 2019, published 2022).

T3 sequence (P07949 whole entry V804L, the tested form may be a part): as the sequence (P07949 whole entry G810R, the tested form may be a part) above, with V804L, R810G counted along it

On to `[2H]C([2H])([2H])C(n1nc(-c2ccc(CC(=O)Nc3cc(C(C)(C)C(F)(F)F)no3)cc2)c2c(N)ncnc21)C([2H])([2H])[2H]` [Compound T-11, 2-(4-(4-amino-1-(propan-2-yl-1,1,1,3,3,3-d6)-1H-pyrazolo[3,4-d]pyrimidin-3-yl)phenyl)-N-(3-(1,1,1-trifluoro-2-methylpropan-2-yl)isoxazol-5-yl)acetamide], for which the “Ba/F3 KIF5B-RET^G810R Selectivity on parental generation” value in test [1] was found to be 939.8. In addition, the GI50 in test [2] worked out at 5.86 nM; in test [3], 0.73 nM; in test [5], 6.1 nM. Further, the “Ba/F3 FLT3-ITD Selectivity on parental generation” value in test [4] is reported as 7543.8.

As to `[2H]C([2H])([2H])C(n1cc(-c2ccc(CC(=O)Nc3cc(C(C)(C)C(F)(F)F)on3)cc2)c2c(N)ncnc21)C([2H])([2H])[2H]` [Compound T-12, 2-(4-(4-amino-7-(propen-2-yl-1,1,1,3,3,d6)-7H-pyrrolo[2,3-d]pyrimidin-5-yl)phenyl)-N-(5-(1,1,1-trifluo-2-methylpropan-2-yl)isoxazol-3-yl)acetamide], the “Ba/F3 KIF5B-RET^G810R Selectivity on parental generation” value in test [1] was found to be 167.5. Also, the GI50 in test [2] was found to be 6.4 nM; in test [3], 0.7 nM; in test [5], 8.11 nM. Besides, in test [4], the “Ba/F3 FLT3-ITD Selectivity on parental generation” value amounted to 1531.4.
